Laboratory results published in ChEMBL document CHEMBL1133789, “The discovery of anthranilic acid-based MMP inhibitors. Part 1: SAR of the 3-position” (Bioorg Med Chem Lett, 2001).
pIC50: −log10 of the molar value. Activity calls are given as the source filed them.

Assays:
Interstitial collagenase = target: T1, Interstitial collagenase (Homo sapiens, UniProt P03956); assay: Inhibitory activity against Matrix metalloprotease-1
T1 sequence (P03956 whole entry): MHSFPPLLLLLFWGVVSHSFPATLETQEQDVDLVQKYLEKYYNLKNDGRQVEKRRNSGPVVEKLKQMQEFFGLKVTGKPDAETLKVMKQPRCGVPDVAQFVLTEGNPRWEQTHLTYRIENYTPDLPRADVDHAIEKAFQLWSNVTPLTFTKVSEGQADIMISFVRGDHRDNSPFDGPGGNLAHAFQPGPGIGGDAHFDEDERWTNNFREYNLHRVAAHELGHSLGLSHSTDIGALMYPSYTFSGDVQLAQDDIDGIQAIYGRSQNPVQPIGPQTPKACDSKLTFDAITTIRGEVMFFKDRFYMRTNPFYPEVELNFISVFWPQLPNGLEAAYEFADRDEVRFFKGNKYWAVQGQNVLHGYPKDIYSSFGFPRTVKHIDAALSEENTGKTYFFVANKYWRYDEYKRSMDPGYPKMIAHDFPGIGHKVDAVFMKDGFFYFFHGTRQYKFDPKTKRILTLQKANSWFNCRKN

[1] = target: T2, Matrix metalloproteinase-9 (Homo sapiens, UniProt P14780); assay: Dose at which the compound was equipotent with CGS-27023 against matrix metalloprotease-9 in the dialysis tubing implant assay; format: functional
Rattus norvegicus = assay: In vivo inhibition of collagen degradation in a rat sponge wrapped cartilage model at a dose of 50 mg/kg ip; format: functional; details: route intraperitoneal
Bos taurus [2] = species: Bos taurus; assay: Inhibition of collagen degradation in a bovine articular cartilage assay; format: functional
[3] = target: T2, Matrix metalloproteinase-9; assay: Tested the po dose effective against Matrix metalloprotease-9 in the dialysis tubing implant assay; format: functional, organism-based
[4] = target: T3, Interstitial collagenase (Homo sapiens) (UniProt P03956); assay: Inhibition of Matrix metalloprotease-1 at 1 uM
T3 sequence (whole entry): T1 sequence (P03956 whole entry)

Bos taurus [5] = species: Bos taurus; assay: animal or person; details: po, read-out: Inhibition
Collagenase 3 = Collagenase 3 (Homo sapiens, UniProt P45452)
Description: Inhibitory activity against Matrix metalloprotease-13

[6] = target: T2, Matrix metalloproteinase-9; assay: Inhibitory activity against Matrix metalloprotease-9
[7] = target: T3, Interstitial collagenase (Homo sapiens); assay: Inhibition of Matrix metalloprotease-1 at 1 uM (inactive)
[8] = target: T3, Interstitial collagenase (Homo sapiens); assay: Inhibition of Matrix metalloprotease-1 (inactive)
[9] = target: Disintegrin and metalloproteinase domain-containing protein 17 (Homo sapiens, UniProt P78536)
Disintegrin and metalloproteinase domain-containing protein 17, sequence (P78536 whole entry, the tested form may be a part): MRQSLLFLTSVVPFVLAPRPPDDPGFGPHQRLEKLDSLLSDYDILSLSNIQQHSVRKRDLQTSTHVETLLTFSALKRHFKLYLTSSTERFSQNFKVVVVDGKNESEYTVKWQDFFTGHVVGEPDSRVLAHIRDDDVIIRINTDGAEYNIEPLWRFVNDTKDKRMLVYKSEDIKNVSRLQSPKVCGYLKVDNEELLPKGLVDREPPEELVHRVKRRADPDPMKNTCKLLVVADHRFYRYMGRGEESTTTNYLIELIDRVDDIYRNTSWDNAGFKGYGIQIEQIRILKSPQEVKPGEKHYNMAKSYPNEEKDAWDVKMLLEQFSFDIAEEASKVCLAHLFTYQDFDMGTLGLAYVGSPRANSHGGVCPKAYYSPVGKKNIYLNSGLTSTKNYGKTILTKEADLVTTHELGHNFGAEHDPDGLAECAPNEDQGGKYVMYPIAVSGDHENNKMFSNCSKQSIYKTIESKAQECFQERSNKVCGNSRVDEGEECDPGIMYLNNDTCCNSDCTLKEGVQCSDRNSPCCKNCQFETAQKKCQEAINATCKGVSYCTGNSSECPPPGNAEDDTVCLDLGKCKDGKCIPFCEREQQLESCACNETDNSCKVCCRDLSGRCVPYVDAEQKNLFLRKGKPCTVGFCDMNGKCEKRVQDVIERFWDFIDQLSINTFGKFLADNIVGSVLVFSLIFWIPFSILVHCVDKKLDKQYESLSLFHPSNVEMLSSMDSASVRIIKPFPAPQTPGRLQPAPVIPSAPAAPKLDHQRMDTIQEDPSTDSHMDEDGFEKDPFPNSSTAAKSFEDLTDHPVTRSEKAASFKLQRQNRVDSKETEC
Description: Inhibition of TNF-alpha converting enzyme (TACE)

T2 sequence (P14780 whole entry): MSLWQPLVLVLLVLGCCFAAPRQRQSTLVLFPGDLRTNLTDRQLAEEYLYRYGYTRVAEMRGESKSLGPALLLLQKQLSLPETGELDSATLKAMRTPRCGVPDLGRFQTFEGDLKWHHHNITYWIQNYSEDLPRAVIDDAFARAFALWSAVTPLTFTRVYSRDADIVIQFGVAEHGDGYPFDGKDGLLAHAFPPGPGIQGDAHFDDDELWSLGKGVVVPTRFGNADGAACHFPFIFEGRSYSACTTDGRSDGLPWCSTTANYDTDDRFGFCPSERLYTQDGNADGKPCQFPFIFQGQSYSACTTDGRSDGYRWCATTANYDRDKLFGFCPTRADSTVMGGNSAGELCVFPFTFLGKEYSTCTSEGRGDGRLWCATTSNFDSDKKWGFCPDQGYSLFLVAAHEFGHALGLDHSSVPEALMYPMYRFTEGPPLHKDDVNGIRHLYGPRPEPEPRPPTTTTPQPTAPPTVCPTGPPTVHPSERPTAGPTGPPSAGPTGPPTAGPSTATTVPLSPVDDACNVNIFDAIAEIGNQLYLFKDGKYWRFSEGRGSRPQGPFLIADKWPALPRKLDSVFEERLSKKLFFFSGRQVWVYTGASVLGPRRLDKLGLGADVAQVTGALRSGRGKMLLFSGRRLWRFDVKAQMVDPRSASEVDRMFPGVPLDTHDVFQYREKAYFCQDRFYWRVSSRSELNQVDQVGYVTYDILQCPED

Question: What does the source list for `COc1ccc(S(=O)(=O)N(Cc2cccnc2)c2c(C)cccc2C(=O)NO)cc1`?
Answer: pIC50 (Interstitial collagenase): 6.84; DOSE [1]: 50 mg/kg; inhibition in vivo at 50 mg/kg (Rattus norvegicus): 51%; Inhibition (Bos taurus [2]): 49%; ED50 [3]: 33 mg/kg

Question: How did the inhibition [4] turn out when `COc1ccc(S(=O)(=O)N(Cc2ccccc2)c2c(C(=O)NO)cccc2N(C)C)cc1` was run?
Answer: 19%

Question: For `COc1ccc(S(=O)(=O)N(Cc2cccnc2)[C@@H](C(=O)NO)C(C)C)cc1` [CGS-27023A], which inhibition in vivo at 50 mg/kg (Bos taurus [5]) is on record?
Answer: 52%

Question: With `COc1ccc(S(=O)(=O)N(Cc2ccccc2)c2c(C(=O)NO)cccc2C(F)(F)F)cc1` as the compound, how does the pIC50 (Collagenase 3) read?
Answer: 6.87

Question: What about the inhibition [4] of the same compound?
Answer: 41%

Question: Which results are given for `COc1ccc(S(=O)(=O)N(Cc2ccccc2)c2c(C(=O)NO)cccc2[N+](=O)[O-])cc1`?
Answer: pIC50 (Collagenase 3): 7.38; pIC50 (Interstitial collagenase): 6.69; pIC50 [6]: 7.89

Question: With `COc1ccc(S(=O)(=O)N(Cc2ccccc2)c2c(OC(C)(C)C(=O)NO)cccc2C(=O)NO)cc1` as the compound, how does the pIC50 (Interstitial collagenase) read?
Answer: 6.22

Question: What about the pIC50 [6] of the same compound?
Answer: 8.40

Question: For `COc1ccc(S(=O)(=O)N(Cc2ccccc2)c2cccc(C(=O)NO)c2)cc1`, which inhibition [7] is on record?
Answer: inactive

Question: How did the inhibition [8] turn out when `COc1ccc(S(=O)(=O)N(Cc2ccccc2)c2ccc(C(=O)NO)cc2)cc1` was run?
Answer: inactive

Question: With `COC(=O)c1cccc(C(=O)NO)c1N(Cc1cccnc1)S(=O)(=O)c1ccc(OC)cc1` as the compound, how does the pIC50 [6] read?
Answer: 8.22

Question: How did the pIC50 (Interstitial collagenase) turn out when `COc1ccc(S(=O)(=O)N(Cc2ccccc2)c2c(OC)cccc2C(=O)NO)cc1` was run?
Answer: 6.28

Question: `COc1ccc(S(=O)(=O)N(Cc2ccccc2)c2c(OCC(=O)NO)cccc2C(=O)NO)cc1` was tested. Which pIC50 (Collagenase 3) did it give?
Answer: 9.00

Question: What about the pIC50 [9] of the same compound?
Answer: 7.09

Question: And the pIC50 [6]?
Answer: 8.70
